Experimental data: patent US20230053540A1, “TREATMENT OF LIVER INJURY” (Massachusetts Institute of Technology, priority 2019, published 2023)

Test system: hepatocytes
Assay: Seq-Well scRNA-Seq of hepatocytes after APAP overdose (signature scores, DEG vs untreated)
Type: in vivo, mouse
Conditions: cluster A6 (APAP 6 hr)

CC(=O)Nc1ccc(O)cc1 [APAP, acetaminophen]
Iigp1 pct.1: 0.78
Il1b avg_logFC: 0.7365
Il1b pct.1: 0.236
Il1r1 avg_logFC: 0.845
Il1r1 pct.1: 0.683
Insig2 avg_logFC: 0.6834
Insig2 pct.1: 0.854
Iqgap1 avg_logFC: 0.4345
Iqgap1 pct.1: 0.162
Itgb2 avg_logFC: 0.2628
Itgb2 pct.1: 0.105
Itih2 avg_logFC: 0.3109
Itih2 pct.1: 0.893
Jak1 avg_logFC: 0.4696
Jak1 pct.1: 0.554
Jmjd1c avg_logFC: 0.5262
Jmjd1c pct.1: 0.47
Klf6 avg_logFC: 0.6123
Klf6 pct.1: 0.382
Krt8 avg_logFC: 1.204
Krt8 pct.1: 0.826
Krt18 avg_logFC: 1.118
Krt18 pct.1: 0.864
Laptm5 avg_logFC: 0.3169
Laptm5 pct.1: 0.124
Lars2 avg_logFC: 0.5887
Lars2 pct.1: 1
Lgmn avg_logFC: 0.4368
Lgmn pct.1: 0.246
Lmo4 avg_logFC: 0.2923
Lmo4 pct.1: 0.308
Lpin2 avg_logFC: 0.5227
Lpin2 pct.1: 0.745
Lrrc58 avg_logFC: 0.9243
Lrrc58 pct.1: 0.711
Lyst avg_logFC: 0.3767
Lyst pct.1: 0.31
Lyz2 avg_logFC: 0.6523
Lyz2 pct.1: 0.234
Maff avg_logFC: 0.3314
Maff pct.1: 0.224
Malat1 avg_logFC: 1.108
Malat1 pct.1: 0.871
Map2k3 avg_logFC: 0.3952
Map2k3 pct.1: 0.427
Mat1a avg_logFC: 0.3317
Mat1a pct.1: 0.986
Mat2a avg_logFC: 0.4693
Mat2a pct.1: 0.487
Mdn1 avg_logFC: 0.2931
Mdn1 pct.1: 0.251
Mfsd2a avg_logFC: 0.4232
Mfsd2a pct.1: 0.465
Mmp8 avg_logFC: 0.3585
Mmp8 pct.1: 0.136
Mmp14 avg_logFC: 0.2594
Mmp14 pct.1: 0.253
Mrap avg_logFC: 0.8261
Mrap pct.1: 0.606
Mrc1 avg_logFC: 0.3063
Mrc1 pct.1: 0.131
Msn avg_logFC: 0.251
Msn pct.1: 0.105
Mt1 avg_logFC: 0.9315
Mt1 pct.1: 0.981
Mt2 avg_logFC: 0.6647
Mt2 pct.1: 0.938
Mthfd2 avg_logFC: 0.26
Mthfd2 pct.1: 0.205
Myh9 avg_logFC: 0.8661
Myh9 pct.1: 0.718
Myl12a avg_logFC: 0.3937
Myl12a pct.1: 0.461
Myo1e avg_logFC: 0.4916
Myo1e pct.1: 0.475
Ncl avg_logFC: 0.4292
Ncl pct.1: 0.69
Neat1 avg_logFC: 0.6234
Neat1 pct.1: 0.31
Nid1 avg_logFC: 0.3315
Nid1 pct.1: 0.229
Nolc1 avg_logFC: 0.4084
Nolc1 pct.1: 0.363
Nop56 avg_logFC: 0.2507
Nop56 pct.1: 0.282
Nop58 avg_logFC: 0.5859
Nop58 pct.1: 0.492
Phc2 avg_logFC: 0.3092
Phc2 pct.1: 0.284
Picalm avg_logFC: 0.6425
Picalm pct.1: 0.647
Pigr avg_logFC: 0.2627
Pigr pct.1: 0.947
Pla2g7 avg_logFC: 0.2737
Pla2g7 pct.1: 0.119
Plek avg_logFC: 0.3031
Plek pct.1: 0.11
Plin2 avg_logFC: 1.276
Plin2 pct.1: 0.943
Plscr1 avg_logFC: 0.4343
Plscr1 pct.1: 0.329
Ppan avg_logFC: 0.2655
Ppan pct.1: 0.255
Ppl avg_logFC: 0.8287
Ppl pct.1: 0.47
Psat1 avg_logFC: 0.3001
Psat1 pct.1: 0.229
Ptprc avg_logFC: 0.4072
Ptprc pct.1: 0.153
Rad54l2 avg_logFC: 0.3366
Rad54l2 pct.1: 0.325
Ranbp2 avg_logFC: 0.4808
Ranbp2 pct.1: 0.566
Rcan1 avg_logFC: 0.5727
Rcan1 pct.1: 0.425
Rell1 avg_logFC: 0.577
Rell1 pct.1: 0.375
Retnlg avg_logFC: 0.3746
Retnlg pct.1: 0.129
Retsat avg_logFC: 0.4801
Retsat pct.1: 0.845
Rgs2 avg_logFC: 0.3802
Rgs2 pct.1: 0.138
Rnf144a avg_logFC: 0.3119
Rnf144a pct.1: 0.177
Rock2 avg_logFC: 0.5525
Rock2 pct.1: 0.425
Rora avg_logFC: 0.5514
Rora pct.1: 0.549
S100a8 avg_logFC: 1.116
S100a8 pct.1: 0.353
S100a9 avg_logFC: 1.336
S100a9 pct.1: 0.399
Sat1 avg_logFC: 0.6622
Sat1 pct.1: 0.47
Sdad1 avg_logFC: 0.2844
Sdad1 pct.1: 0.289
Sdc3 avg_logFC: 0.318
Sdc3 pct.1: 0.103
Sdc4 avg_logFC: 0.4415
Sdc4 pct.1: 0.909
Serpina3m avg_logFC: 0.6067
Serpina3m pct.1: 0.85
Slc16a6 avg_logFC: 0.864
Slc16a6 pct.1: 0.47
Slc39a14 avg_logFC: 0.6721
Slc39a14 pct.1: 0.678
Son avg_logFC: 0.4342
Son pct.1: 0.601
Spred1 avg_logFC: 0.3351
Spred1 pct.1: 0.308
Sqstm1 avg_logFC: 0.6817
Sqstm1 pct.1: 0.859
Srgn avg_logFC: 0.926
Srgn pct.1: 0.284
Srxn1 avg_logFC: 1.874
Srxn1 pct.1: 0.821
St3gal1 avg_logFC: 0.4344
St3gal1 pct.1: 0.473
Stat3 avg_logFC: 0.4846
Stat3 pct.1: 0.604
Stk17b avg_logFC: 0.2825
Stk17b pct.1: 0.126
Stk40 avg_logFC: 0.4875
Stk40 pct.1: 0.382
Tars avg_logFC: 0.4768
Tars pct.1: 0.666
Tatdn2 avg_logFC: 0.309
Tatdn2 pct.1: 0.334
Tbc1d15 avg_logFC: 0.42
Tbc1d15 pct.1: 0.461
Tcerg1 avg_logFC: 0.3358
Tcerg1 pct.1: 0.305
Tiparp avg_logFC: 0.427
Tiparp pct.1: 0.346
Tjp2 avg_logFC: 0.403
Tjp2 pct.1: 0.332
Tmem87b avg_logFC: 0.3486
Tmem87b pct.1: 0.351
Tmsb4x avg_logFC: 0.7051
Tmsb4x pct.1: 0.332
Tnfrsf1a avg_logFC: 0.4533
Tnfrsf1a pct.1: 0.508
Tnfrsf12a avg_logFC: 1.081
Tnfrsf12a pct.1: 0.623
Tra2a avg_logFC: 0.6917
Tra2a pct.1: 0.337
Trp53inp1 avg_logFC: 0.8389
Trp53inp1 pct.1: 0.637
Tsc22d2 avg_logFC: 0.3382
Tsc22d2 pct.1: 0.353
Tsku avg_logFC: 0.3206
Tsku pct.1: 0.327
Tsr1 avg_logFC: 0.314
Tsr1 pct.1: 0.341
Tubb2a avg_logFC: 0.7838
Tubb2a pct.1: 0.618
Tubb6 avg_logFC: 0.533
Tubb6 pct.1: 0.368
Txnrd1 pct.1: 0.838
Tyrobp avg_logFC: 0.4431
Tyrobp pct.1: 0.189
